In assay [1] the target is T1, Macrophage migration inhibitory factor (Homo sapiens, UniProt P14174).
T1 sequence (P14174 whole entry): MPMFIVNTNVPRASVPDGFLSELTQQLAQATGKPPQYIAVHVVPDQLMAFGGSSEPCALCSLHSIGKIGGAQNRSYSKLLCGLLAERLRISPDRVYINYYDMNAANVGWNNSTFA
The experiment in a line: Inhibition of human recombinant MIF tautomerase activity.

Assay [2] concerns the target T1, Macrophage migration inhibitory factor. The assay is described as follows: Inhibition of MIF (unknown origin).
Assay [3] has as its target T2, D-dopachrome decarboxylase (Homo sapiens, UniProt P30046). The experiment in a line: Inhibition of wild type human DDT tautomerase activity at 100 uM relative to control.
Assay [4] concerns the target T1, Macrophage migration inhibitory factor. The experiment in a line: Inhibition of human recombinant MIF incubated for 30 mins by microplate reader assay.
The target of assay [5] is T2, D-dopachrome decarboxylase. The assay is described as follows: Inhibition of human DDT extracted from Escherichia coli.
The target in assay [6] is T1, Macrophage migration inhibitory factor. The assay is described as follows: Binding affinity to wild type human MIF extracted from Escherichia coli BL 21 (DE3) assessed as inhibition constant.
For another assay, the species on record is Homo sapiens. The experiment in a line: Selectivity ratio of Ki for wild type human DDT to Ki for wild type human MIF.
The target in assay [7] is T1, Macrophage migration inhibitory factor. The assay is described as follows: Binding affinity to human recombinant MIF extracted from Escherichia coli BL21 (DE3) assessed as inhibition constant.
For assay [8] the target is unchanged. The experiment in a line: Inhibition of human recombinant MIF extracted from Escherichia coli BL21 (DE3).
Assay [9] deals with T2, D-dopachrome decarboxylase. The assay is described as follows: Binding affinity to human DDT extracted from Escherichia coli assessed as inhibition constant.
For assay [10], the target named is T1, Macrophage migration inhibitory factor. The assay is described as follows: Inhibition of human full length MIF extracted from Escherichia coli BL21 (DE3) by UV absorbance based analysis.
In assay [11] the target is T3, Macrophage migration inhibitory factor (Homo sapiens) (UniProt P14174).
T3 sequence (whole entry): T1 sequence (P14174 whole entry)
The assay is described as follows: Potency index, ratio of ISO-1 IC50 to test compound IC50 for inhibition of human recombinant MIF.

T2 sequence (P30046 whole entry): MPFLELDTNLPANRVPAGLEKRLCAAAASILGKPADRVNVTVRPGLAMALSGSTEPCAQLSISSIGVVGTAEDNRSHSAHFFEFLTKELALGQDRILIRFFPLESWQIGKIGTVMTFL

Broadly, the IC50 is the point on the concentration scale where inhibition reaches its midpoint. `O=C1/C(=C/c2ccco2)CCc2ccccc21`: the IC50 in assay [1] is 57.7 µM.
In assay [2], `Nc1ccccc1NC(=O)c1ccc(NC(=O)Cc2ccc(N3Cc4ccc(O)cc4OC3=O)cc2)cc1` registered an IC50 of 0.81 µM.
The inhibition is the relative decrease from the control value, in per cent. A higher inhibition goes with a response far below the control. `O=C(O)c1ccccn1` showed an inhibition in assay [3] above 75%.
`O=C(CSc1cc(-c2ccccc2)ncn1)c1ccc(O)cc1O`: in assay [4], the IC50 stood at 9.49 µM.
For `CCC(CC)c1nnc(NC(=O)Oc2ccccc2)s1`, the IC50 in assay [4] is 12 µM.
For `Cc1ccc(/C=C2\CCc3ccccc3C2=O)cc1`, the IC50 in [1] turned out to be 16.5 µM.
In turn, `Cc1cc(-c2ccccc2)ncn1` showed an IC50 in [5] above 500 µM.
On to `COc1cc(/C=C2\CCc3cc(O)ccc3C2=O)ccc1O`, for which the IC50 in assay [1] came out at 4.31 µM.
Consider `O=C1/C(=C/c2ccccc2)CCc2ccccc21`, for which the IC50 in [1] stood at 127 µM.
As to `COc1ccccc1/C=C1\COc2ccccc2C1=O`, the IC50 in assay [1] turned out to be 4.31 µM.
What is called Ki is a dissociation constant, usually derived from enzyme kinetics or from competition with a known ligand. Turning to `O=C(O)c1ccc(C(=O)O)nc1` [PYRIDINE-2,5-DICARBOXYLIC ACID], the Ki in assay [6] stood at 17.2 µM. This compound also came in with an inhibition in assay [3] below 25%. Also, the Ratio Ki in the assay listed under Homo sapiens stood at 79.
`c1ccc(-c2ccncc2)cc1` yielded an inhibition in [3] above 100%.
Turning to `O=C1/C(=C/c2cccnc2)CCc2ccccc21`, the IC50 in assay [1] came out at 20.3 µM.
In the case of `O=c1c(-c2c(O)cc(O)c3c(=O)cc(-c4ccc(O)cc4)oc23)c(-c2ccc(O)cc2)oc2cc(O)cc(O)c12`, the inhibition constant (Ki) in assay [7] was determined as 10.1 µM. In [8], the IC50 worked out at 13.3 µM.
Consider `O=C(O)c1cccc(-c2cc(C(=O)O)ncc2C(=O)O)c1`, for which the Ki in assay [9] was 33 µM.
Consider `O=C1/C(=C/c2ccncc2)CCc2ccccc21`, for which the IC50 in assay [1] is 21 µM.
Regarding `CC(=O)NS(=O)(=O)c1ccc(NC(=O)CC(C)(C)C)cc1`, in assay [4], the IC50 was 1.22 µM.
The same measure, in the same setting: the result for `O=c1oc2ccc(F)cc2cc1-c1nc(-c2cccs2)no1` reads 7.57 µM.
In turn, `Cc1cc(C(c2ccccn2)N2CCOCC2)c(NC(=O)c2ccco2)s1` (centres undefined) gave an IC50 in assay [10] of 6.44 µM.
In assay [3], `O=C(O)c1cccnc1` returned an inhibition above 100%.
For `O=C(CC1(O)C(=O)N(Cc2ccccc2Cl)c2ccccc21)C1Cc2ccccc2OC1=O` (centres undefined), in assay [4], the IC50 was determined as 7.55 µM.
Turning to `O=c1c(O)c(-c2ccc(O)cc2)oc2cc(O)cc(O)c12` [KAEMPFEROL], the Ratio IC50 in assay [11] is 17.2. Moreover, the IC50 in assay [8] stood at 189 µM.
In the case of `O=c1c(O)c(-c2ccc(O)cc2O)oc2cc(O)cc(O)c12` [MORIN], the Ratio IC50 in [11] is 6.3. Besides, the inhibition constant (Ki) in assay [7] stood at 8.95 µM. Moreover, the IC50 in assay [8] came out at 11 µM.
Turning to `COC(=O)c1ccc(O)c2nc3c(C=O)c(O)cc(O)c3nc12` [LOMOFUNGIN], the IC50 in [2] is 0.47 µM.
For the compound `O=C1/C(=C/c2ccccc2)CCCc2ccccc21`, the IC50 in [1] was 84 µM.
Regarding `C[C@@H]1O[C@@H](O[C@H]2[C@H](Oc3cc(O)c4c(c3)O[C@@H](c3ccc(O)cc3)CC4=O)O[C@H](CO)[C@@H](O)[C@@H]2O)[C@H](O)[C@H](O)[C@H]1O`, the Ratio IC50 in [11] was determined as 13.3. Also, in assay [7], the Ki came out at 43.5 µM. Moreover, the IC50 in [8] came to 51.4 µM.
For the compound `COc1ccc(C(=O)Nc2nnc(-c3ccco3)o2)c(OC)c1`, the midpoint of inhibition in assay [10], the IC50, lay at 6.87 µM.
Turning to `O=C(O)c1ccc(C(=O)O)cc1`, the inhibition in [3] was above 75%.
As for `Cn1cccc1/C=C1\CCc2ccccc2C1=O`, the IC50 in assay [1] came to 23.8 µM.
With `Cc1c(C(=O)c2ccc(Cl)cc2)oc2cc(N)ccc12`, the IC50 in assay [4] amounted to 14 µM.
Take `O=C1/C(=C/c2ccc3cc[nH]c3c2)CCc2ccccc21`: the IC50 in assay [1] worked out at 58.8 µM.

Source of the values: ChEMBL document CHEMBL6182842, “Progress in the development of macrophage migration inhibitory factor small-molecule inhibitors” (Eur J Med Chem, 2025).
